Patent US12077503B2, “Substituted cyclic amides and their use as herbicides” (FMC CORPORATION, priority 2015, dated 2024)

What was measured:
Format in all cases: in vivo
[1] = tested on: giant foxtail (Setaria faberi); test: Test G Post-Emergence Protocol; conditions: Setaria faberi, post-emergence, 312 h, read-out: Foxtail, Giant damage rating; for pest or weed control at 15.625 g/ha: 15.625 g ai/ha, evaluated after 13 days (100=total damage to plant; 0=no damage to plant); for pest or weed control at 62.5 g/ha: 62.5 g ai/ha; for pest or weed control at 62.5 g/ha / pest or weed control at 250 g/ha: evaluated after 13 days, 100=total damage to plant, 0=no damage to plant; for pest or weed control at 250 g/ha: 250 g ai/ha
In short: (§1)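 Eight days post-sowing, plants received a spray of test compound (acetone/water 50:50, 0.5% Tween 20) at 15.625, 62.5 or 250 g/ha. Glasshouse regime thereafter: 24/16 °C, 14 h light, 65% humidity. Assessment after 13 days on a 0–100 damage scale.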

[2] = tested on: redroot pigweed (Amaranthus retroflexus); test: Test G Post-Emergence Protocol; conditions: Amaranthus retroflexus, post-emergence, 312 h, read-out: Pigweed, Redroot damage rating; for pest or weed control at 15.625 g/ha: 15.625 g ai/ha, evaluated after 13 days (100=total damage to plant; 0=no damage to plant); for pest or weed control at 62.5 g/ha: 62.5 g ai/ha; for pest or weed control at 62.5 g/ha / pest or weed control at 250 g/ha: evaluated after 13 days, 100=total damage to plant, 0=no damage to plant; for pest or weed control at 250 g/ha: 250 g ai/ha
In short: as §1

[3] = tested on: velvetleaf (Abutilon theophrasti); test: Test G Post-Emergence Protocol; conditions: Abutilon theophrasti, post-emergence, 312 h, read-out: Velvetleaf damage rating; for pest or weed control at 15.625 g/ha: 15.625 g ai/ha, evaluated after 13 days (100=total damage to plant; 0=no damage to plant); for pest or weed control at 62.5 g/ha: 62.5 g ai/ha; for pest or weed control at 62.5 g/ha / pest or weed control at 250 g/ha: evaluated after 13 days, 100=total damage to plant, 0=no damage to plant; for pest or weed control at 250 g/ha: 250 g ai/ha
In short: as §1

corn (Zea mays) [4] = test: Test G Post-Emergence Protocol; conditions: Zea mays, post-emergence, 312 h, read-out: Corn damage rating; for plant injury at 15.625 g/ha: 15.625 g ai/ha, evaluated after 13 days (100=total damage to plant; 0=no damage to plant); for plant injury at 62.5 g/ha: 62.5 g ai/ha; for plant injury at 62.5 g/ha / plant injury at 250 g/ha: evaluated after 13 days, 100=total damage to plant, 0=no damage to plant; for plant injury at 250 g/ha: 250 g ai/ha
In short: as §1

[5] = tested on: ivy-leaved morning glory (Ipomoea hederacea); test: Test G Post-Emergence Protocol; conditions: Ipomoea, post-emergence, 312 h, read-out: Morningglory, Ivy-leaved damage rating; for pest or weed control at 15.625 g/ha: 15.625 g ai/ha, evaluated after 13 days (100=total damage to plant; 0=no damage to plant); for pest or weed control at 62.5 g/ha: 62.5 g ai/ha; for pest or weed control at 62.5 g/ha / pest or weed control at 250 g/ha: evaluated after 13 days, 100=total damage to plant, 0=no damage to plant; for pest or weed control at 250 g/ha: 250 g ai/ha
In short: as §1

[6] = tested on: barnyardgrass (Echinochloa crus-galli); test: Test G Post-Emergence Protocol; conditions: Echinochloa crus-galli, post-emergence, 312 h, read-out: Barnyardgrass damage rating; for pest or weed control at 15.625 g/ha: 15.625 g ai/ha, evaluated after 13 days (100=total damage to plant; 0=no damage to plant); for pest or weed control at 62.5 g/ha: 62.5 g ai/ha; for pest or weed control at 62.5 g/ha / pest or weed control at 250 g/ha: evaluated after 13 days, 100=total damage to plant, 0=no damage to plant; for pest or weed control at 250 g/ha: 250 g ai/ha
In short: as §1

[7] = tested on: giant foxtail (Setaria faberi); test: Test G Pre-Emergence Protocol; conditions: Setaria faberi, pre-emergence, 312 h, evaluated after 13 days; for pest or weed control at 15.625 g/ha: 15.625 g ai/ha; for pest or weed control at 15.625 g/ha / pest or weed control at 250 g/ha: read-out: Foxtail, Giant damage rating (100=total damage to plant; 0=no damage to plant); for pest or weed control at 62.5 g/ha: 62.5 g ai/ha, 100=total damage to plant, 0=no damage to plant, read-out: Foxtail, Giant damage rating; for pest or weed control at 250 g/ha: 250 g ai/ha
In short: (§2)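 Pots of seeds in standard soil were grown for one day in a glasshouse (24/16 °C day/night, 14 h light, 65% humidity), then sprayed with compound in acetone/water 50:50 with 0.5% Tween 20 at 15.625, 62.5 or 250 g/ha. Damage was scored after 13 days on a 0 (none) to 100 (total) scale.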

[8] = tested on: redroot pigweed (Amaranthus retroflexus); test: Test G Pre-Emergence Protocol; conditions: Amaranthus retroflexus, pre-emergence, 312 h, evaluated after 13 days; for pest or weed control at 15.625 g/ha: 15.625 g ai/ha; for pest or weed control at 15.625 g/ha / pest or weed control at 250 g/ha: read-out: Pigweed, Redroot damage rating (100=total damage to plant; 0=no damage to plant); for pest or weed control at 62.5 g/ha: 62.5 g ai/ha, 100=total damage to plant, 0=no damage to plant, read-out: Pigweed, Redroot damage rating; for pest or weed control at 250 g/ha: 250 g ai/ha
In short: as §2

[9] = tested on: velvetleaf (Abutilon theophrasti); test: Test G Pre-Emergence Protocol; conditions: Abutilon theophrasti, pre-emergence, 312 h, evaluated after 13 days; for pest or weed control at 15.625 g/ha: 15.625 g ai/ha; for pest or weed control at 15.625 g/ha / pest or weed control at 250 g/ha: read-out: Velvetleaf damage rating (100=total damage to plant; 0=no damage to plant); for pest or weed control at 62.5 g/ha: 62.5 g ai/ha, 100=total damage to plant, 0=no damage to plant, read-out: Velvetleaf damage rating; for pest or weed control at 250 g/ha: 250 g ai/ha
In short: as §2

corn (Zea mays) [10] = test: Test G Pre-Emergence Protocol; conditions: Zea mays, pre-emergence, 312 h, evaluated after 13 days; for plant injury at 15.625 g/ha: 15.625 g ai/ha; for plant injury at 15.625 g/ha / plant injury at 250 g/ha: read-out: Corn damage rating (100=total damage to plant; 0=no damage to plant); for plant injury at 62.5 g/ha: 62.5 g ai/ha, 100=total damage to plant, 0=no damage to plant, read-out: Corn damage rating; for plant injury at 250 g/ha: 250 g ai/ha
In short: as §2

[11] = tested on: ivy-leaved morning glory (Ipomoea hederacea); test: Test G Pre-Emergence Protocol; conditions: Ipomoea, pre-emergence, 312 h, evaluated after 13 days; for pest or weed control at 15.625 g/ha: 15.625 g ai/ha; for pest or weed control at 15.625 g/ha / pest or weed control at 250 g/ha: read-out: Morningglory, Ivy-leaved damage rating (100=total damage to plant; 0=no damage to plant); for pest or weed control at 62.5 g/ha: 62.5 g ai/ha, 100=total damage to plant, 0=no damage to plant, read-out: Morningglory, Ivy-leaved damage rating; for pest or weed control at 250 g/ha: 250 g ai/ha
In short: as §2

[12] = tested on: barnyardgrass (Echinochloa crus-galli); test: Test G Pre-Emergence Protocol; conditions: Echinochloa crus-galli, pre-emergence, 312 h, evaluated after 13 days; for pest or weed control at 15.625 g/ha: 15.625 g ai/ha; for pest or weed control at 15.625 g/ha / pest or weed control at 250 g/ha: read-out: Barnyardgrass damage rating (100=total damage to plant; 0=no damage to plant); for pest or weed control at 62.5 g/ha: 62.5 g ai/ha, 100=total damage to plant, 0=no damage to plant, read-out: Barnyardgrass damage rating; for pest or weed control at 250 g/ha: 250 g ai/ha
In short: as §2

SMILES	pest or weed control at 15.625 g/ha [1]	pest or weed control at 62.5 g/ha [1]	pest or weed control at 250 g/ha [1]	pest or weed control at 15.625 g/ha [2]	pest or weed control at 62.5 g/ha [2]	pest or weed control at 250 g/ha [2]	pest or weed control at 15.625 g/ha [3]	pest or weed control at 62.5 g/ha [3]	pest or weed control at 250 g/ha [3]	plant injury at 15.625 g/ha (corn (Zea mays) [4])	plant injury at 62.5 g/ha (corn (Zea mays) [4])	plant injury at 250 g/ha (corn (Zea mays) [4])	pest or weed control at 15.625 g/ha [5]	pest or weed control at 62.5 g/ha [5]	pest or weed control at 250 g/ha [5]	pest or weed control at 15.625 g/ha [6]	pest or weed control at 62.5 g/ha [6]	pest or weed control at 250 g/ha [6]	pest or weed control at 15.625 g/ha [7]	pest or weed control at 62.5 g/ha [7]	other results
CN1C[C@H](c2ccc(C(F)(F)F)cc2)[C@@H](C(=O)Nc2ccc3ncccc3n2)C1=O (racemic) [Compound 1833]	0%	0%	0%	0%	0%	0%	0%	0%	0%	0%	0%	0%	0%	0%	0%	0%	0%	0%	0%	0%	pest or weed control at 250 g/ha [7]: 0%; pest or weed control at 15.625 g/ha [8]: 0%; pest or weed control at 62.5 g/ha [8]: 0%; pest or weed control at 250 g/ha [8]: 0%; pest or weed control at 15.625 g/ha [9]: 0%; pest or weed control at 62.5 g/ha [9]: 0%; pest or weed control at 250 g/ha [9]: 0%; plant injury at 15.625 g/ha (corn (Zea mays) [10]): 0%; plant injury at 62.5 g/ha (corn (Zea mays) [10]): 0%; plant injury at 250 g/ha (corn (Zea mays) [10]): 0%; pest or weed control at 15.625 g/ha [11]: 0%; pest or weed control at 62.5 g/ha [11]: 0%; pest or weed control at 250 g/ha [11]: 0%; pest or weed control at 15.625 g/ha [12]: 0%; pest or weed control at 62.5 g/ha [12]: 0%; pest or weed control at 250 g/ha [12]: 0%
CN1C[C@H](c2cc(Cl)cc(C(F)(F)F)c2)[C@@H](C(=O)Nc2ccccc2S(C)(=O)=O)C1=O (racemic) [Compound 1797]	50%	80%	80%	30%	70%	80%	60%	80%	90%	10%	60%	70%	0%	40%	80%	30%	70%	80%	60%	80%	pest or weed control at 250 g/ha [7]: 90%; pest or weed control at 15.625 g/ha [8]: 0%; pest or weed control at 62.5 g/ha [8]: 0%; pest or weed control at 250 g/ha [8]: 60%; pest or weed control at 15.625 g/ha [9]: 0%; pest or weed control at 62.5 g/ha [9]: 20%; pest or weed control at 250 g/ha [9]: 70%; plant injury at 15.625 g/ha (corn (Zea mays) [10]): 10%; plant injury at 62.5 g/ha (corn (Zea mays) [10]): 50%; plant injury at 250 g/ha (corn (Zea mays) [10]): 70%; pest or weed control at 15.625 g/ha [11]: 0%; pest or weed control at 62.5 g/ha [11]: 10%; pest or weed control at 250 g/ha [11]: 20%; pest or weed control at 15.625 g/ha [12]: 40%; pest or weed control at 62.5 g/ha [12]: 60%; pest or weed control at 250 g/ha [12]: 80%
